Test results: ChEMBL document CHEMBL1240385, “Detection of KPC in Acinetobacter spp. in Puerto Rico” (2010)
Values after ≈ are worked out from the molar mass of the structure shown.

Legend:
Format in all cases: functional
[1] = (§1) Antibacterial activity against Acinetobacter calcoaceticus/baumannii complex isolate C1AC9-24 expressing KPC beta lactamase
[2] = (§2) Antibacterial activity against Acinetobacter calcoaceticus/baumannii complex isolate M2AC9-31 expressing KPC beta lactamase
[3] = (§3) Antibacterial activity against Acinetobacter calcoaceticus/baumannii complex isolate M3AC9-2 expressing KPC beta lactamase
[4] = (§4) Antibacterial activity against Acinetobacter calcoaceticus/baumannii complex isolate M3AC9-4 expressing KPC beta lactamase
[5] = (§5) Antibacterial activity against Acinetobacter calcoaceticus/baumannii complex isolate M3AC9-6 expressing KPC beta lactamase
[6] = (§6) Antibacterial activity against Acinetobacter calcoaceticus/baumannii complex isolate M3AC9-7 expressing KPC beta lactamase
[7] = (§7) Antibacterial activity against Acinetobacter calcoaceticus/baumannii complex isolate MC1AC9-26 expressing KPC beta lactamase
[8] = (§8) Antibacterial activity against Acinetobacter calcoaceticus/baumannii complex isolate MC4AC9-30 expressing KPC beta lactamase
[9] = (§9) Antibacterial activity against Acinetobacter calcoaceticus/baumannii complex isolate N2AC9-18 expressing KPC beta lactamase
[10] = (§10) Antibacterial activity against Acinetobacter calcoaceticus/baumannii complex isolate N2AC9-19 expressing KPC beta lactamase
[11] = (§11) Antibacterial activity against Acinetobacter calcoaceticus/baumannii complex isolate W2AC8-S10 expressing OXA-51
[12] = system: Escherichia coli; assay: Antibacterial activity against Escherichia coli ATCC 25922 […]
[13] = system: Pseudomonas aeruginosa; assay: Antibacterial activity against Pseudomonas aeruginosa ATCC 27853 […]
[14] = system: Acinetobacter calcoaceticus/baumannii complex; assay: as §1
[15] = system: Acinetobacter calcoaceticus/baumannii complex; assay: as §2
[16] = system: Acinetobacter calcoaceticus/baumannii complex; assay: as §3
[17] = system: Acinetobacter calcoaceticus/baumannii complex; assay: as §4
[18] = system: Acinetobacter calcoaceticus/baumannii complex; assay: as §5
[19] = system: Acinetobacter calcoaceticus/baumannii complex; assay: as §6
[20] = system: Acinetobacter calcoaceticus/baumannii complex; assay: as §7
[21] = system: Acinetobacter calcoaceticus/baumannii complex; assay: as §8
[22] = system: Acinetobacter calcoaceticus/baumannii complex; assay: as §9
[23] = system: Acinetobacter calcoaceticus/baumannii complex; assay: as §10
[24] = system: Acinetobacter calcoaceticus/baumannii complex; assay: as §11

Compound | MIC [1] | MIC [2] | MIC [3] | MIC [4] | MIC [5] | MIC [6] | MIC [7] | MIC [8] | MIC [9] | MIC [10] | MIC [11] | MIC [12] | MIC [13] | other results
C[C@@H](O)[C@H]1C(=O)N2C(C(=O)O)=C(S[C@@H]3CN[C@H](C(=O)N(C)C)C3)[C@H](C)[C@H]12 [MEROPENEM] | 4 µg/mL (≈ 10.4 µM) | > 8 µg/mL | > 8 µg/mL | > 8 µg/mL | > 8 µg/mL | > 8 µg/mL | > 8 µg/mL | > 8 µg/mL | > 8 µg/mL | > 8 µg/mL | 1 µg/mL (≈ 2.61 µM) | 1 µg/mL (≈ 2.61 µM) | < 1 µg/mL | 
NCC[C@H](O)C(=O)N[C@@H]1C[C@H](N)[C@@H](O[C@H]2O[C@H](CN)[C@@H](O)[C@H](O)[C@H]2O)[C@H](O)[C@H]1O[C@H]1O[C@H](CO)[C@@H](O)[C@H](N)[C@H]1O [AMIKACIN] | > 32 µg/mL | > 32 µg/mL | > 32 µg/mL | > 32 µg/mL | > 32 µg/mL | > 32 µg/mL | > 32 µg/mL | > 32 µg/mL | > 32 µg/mL | > 32 µg/mL | 4 µg/mL (≈ 6.83 µM) | 4 µg/mL (≈ 6.83 µM) | < 4 µg/mL | 
COLISTIN |  |  |  |  |  |  |  |  |  |  |  | 0.25 µg/mL | 1 µg/mL | MIC [14]: 1 µg/mL; MIC [15]: 0.5 µg/mL; MIC [16]: 0.5 µg/mL; MIC [17]: 1 µg/mL; MIC [18]: 1 µg/mL; MIC [19]: 1 µg/mL; MIC [20]: 0.5 µg/mL; MIC [21]: 0.5 µg/mL; MIC [22]: 0.5 µg/mL; MIC [23]: 0.5 µg/mL; MIC [24]: 0.25 µg/mL
CN(C)c1ccc(O)c2c1C[C@H]1C[C@H]3[C@H](N(C)C)C(O)=C(C(N)=O)C(=O)[C@@]3(O)C(O)=C1C2=O [MINOCYCLINE] | 8 µg/mL (≈ 17.5 µM) | < 2 µg/mL | < 2 µg/mL | 4 µg/mL (≈ 8.74 µM) | < 2 µg/mL | < 2 µg/mL | < 2 µg/mL | 4 µg/mL (≈ 8.74 µM) | < 2 µg/mL | < 2 µg/mL | 2 µg/mL (≈ 4.37 µM) | 2 µg/mL (≈ 4.37 µM) | 16 µg/mL (≈ 35 µM) | 
CC(C)(O/N=C(\C(=O)N[C@@H]1C(=O)N2C(C(=O)[O-])=C(C[n+]3ccccc3)CS[C@H]12)c1csc(N)n1)C(=O)O [CEFTAZIDIME] | > 16 µg/mL | > 16 µg/mL | > 16 µg/mL | > 16 µg/mL | > 16 µg/mL | > 16 µg/mL | > 16 µg/mL | > 16 µg/mL | > 16 µg/mL | > 16 µg/mL | 2 µg/mL (≈ 3.66 µM) | 1 µg/mL (≈ 1.83 µM) | 2 µg/mL (≈ 3.66 µM) | 
C[C@@H](O)[C@H]1C(=O)N2C(C(=O)O)=C(S[C@@H]3CN[C@H](CNS(N)(=O)=O)C3)[C@H](C)[C@H]12 [DORIPENEM] | > 2 µg/mL | > 2 µg/mL | > 2 µg/mL | > 2 µg/mL | > 2 µg/mL | > 2 µg/mL | > 2 µg/mL | > 2 µg/mL | > 2 µg/mL | > 2 µg/mL | 0.12 µg/mL (≈ 0.285 µM) | 0.12 µg/mL (≈ 0.285 µM) | 0.5 µg/mL (≈ 1.19 µM) | 
CO/N=C(\C(=O)N[C@@H]1C(=O)N2C(C(=O)[O-])=C(C[N+]3(C)CCCC3)CS[C@H]12)c1csc(N)n1 | > 16 µg/mL | > 16 µg/mL | > 16 µg/mL | > 16 µg/mL | > 16 µg/mL | > 16 µg/mL | > 16 µg/mL | > 16 µg/mL | > 16 µg/mL | > 16 µg/mL | 2 µg/mL (≈ 4.16 µM) | 2 µg/mL (≈ 4.16 µM) | < 2 µg/mL | 
POLYMYXIN B |  |  |  |  |  |  |  |  |  |  |  | 0.25 µg/mL | 1 µg/mL | MIC [14]: 0.5 µg/mL; MIC [15]: < 0.25 µg/mL; MIC [16]: < 0.25 µg/mL; MIC [17]: < 0.25 µg/mL; MIC [18]: 0.5 µg/mL; MIC [19]: 0.5 µg/mL; MIC [20]: < 0.25 µg/mL; MIC [21]: 0.5 µg/mL; MIC [22]: < 0.25 µg/mL; MIC [23]: < 0.25 µg/mL; MIC [24]: 0.5 µg/mL
O=C(O)c1cn(C2CC2)c2cc(N3CCNCC3)c(F)cc2c1=O [CIPROFLOXACIN] |  |  |  |  |  |  |  |  |  |  | 0.25 µg/mL (≈ 0.754 µM) |  |  | 
CN(C)c1cc(NC(=O)CNC(C)(C)C)c(O)c2c1C[C@H]1C[C@H]3[C@H](N(C)C)C(O)=C(C(N)=O)C(=O)[C@@]3(O)C(O)=C1C2=O [TIGECYCLINE] | 1 µg/mL (≈ 1.71 µM) | 1 µg/mL (≈ 1.71 µM) | 0.5 µg/mL (≈ 0.854 µM) | 0.25 µg/mL (≈ 0.427 µM) | 0.5 µg/mL (≈ 0.854 µM) | 0.5 µg/mL (≈ 0.854 µM) | 2 µg/mL (≈ 3.41 µM) | 0.5 µg/mL (≈ 0.854 µM) | 1 µg/mL (≈ 1.71 µM) | 2 µg/mL (≈ 3.41 µM) | < 0.25 µg/mL | 0.25 µg/mL (≈ 0.427 µM) | 8 µg/mL (≈ 13.7 µM) | 
C[C@@H](O)[C@H]1C(=O)N2C(C(=O)O)=C(SCCNC=N)C[C@H]12 [IMIPENEM ANHYDROUS] | 4 µg/mL (≈ 13.4 µM) | 8 µg/mL (≈ 26.7 µM) | > 8 µg/mL | > 8 µg/mL | > 8 µg/mL | > 8 µg/mL | 8 µg/mL (≈ 26.7 µM) | 8 µg/mL (≈ 26.7 µM) | > 8 µg/mL | > 8 µg/mL | 1 µg/mL (≈ 3.34 µM) | 1 µg/mL (≈ 3.34 µM) | 2 µg/mL (≈ 6.68 µM) | 
CO/N=C(\C(=O)N[C@@H]1C(=O)N2C(C(=O)O)=C(COC(C)=O)CS[C@H]12)c1csc(N)n1 [CEFOTAXIME] | > 32 µg/mL | > 32 µg/mL | > 32 µg/mL | > 32 µg/mL | > 32 µg/mL | > 32 µg/mL | > 32 µg/mL | > 32 µg/mL | > 32 µg/mL | > 32 µg/mL | 4 µg/mL (≈ 8.78 µM) | 1 µg/mL (≈ 2.2 µM) | 16 µg/mL (≈ 35.1 µM) | 
GENTAMICIN |  |  |  |  |  |  |  |  |  |  |  | 1 µg/mL | < 1 µg/mL | MIC [14]: > 8 µg/mL; MIC [15]: > 8 µg/mL; MIC [16]: 2 µg/mL; MIC [17]: > 8 µg/mL; MIC [18]: 2 µg/mL; MIC [19]: < 1 µg/mL; MIC [20]: 8 µg/mL; MIC [21]: > 8 µg/mL; MIC [22]: > 8 µg/mL; MIC [23]: > 8 µg/mL; MIC [24]: 1 µg/mL
C[C@H]1COc2c(N3CCN(C)CC3)c(F)cc3c(=O)c(C(=O)O)cn1c23.C[C@H]1COc2c(N3CCN(C)CC3)c(F)cc3c(=O)c(C(=O)O)cn1c23.O [LEVOFLOXACIN] | > 8 µg/mL | > 8 µg/mL | > 8 µg/mL | > 8 µg/mL | > 8 µg/mL | > 8 µg/mL | > 8 µg/mL | > 8 µg/mL | > 8 µg/mL | > 8 µg/mL | 1 µg/mL |  | < 1 µg/mL | 
